Measurements published in patent US20230293644A1, “ANTI-INFLAMMATORY PEPTIDES AND COMPOSITION COMPRISING THE SAME” (Gemvax & KAEL Co., Ltd., priority 2012, published 2023).

Test system: TNF-α
Test: Screening of TNF-α inhibitory effect, LPS-stimulated PBMC-derived monocytes (Example 2)
Assay type: cell-based, human
Details: 4 uM peptide, 2 hrs, LPS 10 ng/ml; for TNF-α inhibiting effect compared to the group treated with LPS and estrogen: estrogen 20 nM
Experimental: PBMC (peripheral blood mononuclear cells) layer was separated from blood samples (50 ml) collected in healthy subjects using Biocoll Separating Solution (Biochrom AG, Berlin, Germany). The collected PBMC were enriched in RPMI 1640 medium containing 20% human serum for 30 mins, and then transferred to 100-mm polystyeren cell culture plate coated with human serum for incubation for 2 hrs at 37° C., 5% CO^2 incubator. Monocytes were detached from the bottom of the plate using cold PBS, and incubated to reach the number of 1 × 10^5 cell/well in 96-well plate with RPMI 1640 medium (supplemented with penicillinstreptomycin; […], human serum; 20%) over night.
ELISA was performed to find out how the peptides of the PEP RIA series influence TNF-α level. PBMC-derived monocytes were incubated to reach the number of 1 × 10^5 cells per well in a 96-well plate and then treated with LPS (lipopolysaccharide; 10 ng/ml, Sigma) for 2 hours. To the monocytes that were washed three times with PBS, OPTI-MEM culture medium was added to induce cell starvation for an hour, 4 µM of the peptide was taken out and incubated for 2 hours. There were three negative control groups. The first group was not treated with anything. The second group that was treated with estrogen (in this experiment, estradiol was used as a kind of estrogen). The third group was treated with LPS (10 ng/ml) or with LPS (10 ng/ml) as well as estrogen (20 nM). PEP1 that was confirmed to have TNF-α inhibiting activity was used as a positive control to measure TNF-α inhibiting activity. After incubation, TNF-α was measured by following the ELISA kit manual (R&D, Minneapolis, MN, USA). The details of quantification method can be found in Experiment 2.2 of Example 1.
Using the method stated above, Peptides with TNF-α inhibiting effect were screened. PBMC-derived monocytes were stimulated with LPS (10 ng/ml), which is endotoxin, for 2 hours and were induced to starve by adding OPTI-MEM for 1 hour. After that, 4 uM of 179 peptides were treated and incubated for 2 hrs. The amount of TNF-α in the cell culture medium was measured using ELISA, and the peptides with TNF-α inhibiting effect were screened by comparing to the negative and positive controls (FIG. 3 to FIG. 23).

| Substance | TNF-α inhibiting effect compared to the control group treated with only LPS | TNF-α inhibiting effect compared to the group treated with LPS and estrogen |
| --- | --- | --- |
| ARPALL (listed as Homo sapiens) [SEQ ID NO: 117] | showed TNF-α inhibiting effect | showed TNF-α inhibiting effect |
| ARPALLTSRLRFIP (listed as Homo sapiens) [SEQ ID NO: 104] | showed TNF-α inhibiting effect | – |
| EAEVRQHREARPALLTSRLRFIPK (listed as Homo sapiens) [SEQ ID NO: 9] | showed TNF-α inhibiting effect | showed TNF-α inhibiting effect |
| ARPALLTSRLRFIPK (listed as Homo sapiens) [SEQ ID NO: 91] | showed TNF-α inhibiting effect | showed TNF-α inhibiting effect |
| QHREARPALLTSRLRFIPKPD (listed as Homo sapiens) [SEQ ID NO: 21] | showed TNF-α inhibiting effect | – |
| HREARPALLTSRLRFIPKPDGLRPI (listed as Homo sapiens) [SEQ ID NO: 63] | showed TNF-α inhibiting effect | showed TNF-α inhibiting effect |
| LRFI (listed as Homo sapiens) [SEQ ID NO: 175] | showed TNF-α inhibiting effect | – |
| TSRLRFIP (listed as Homo sapiens) [SEQ ID NO: 159] | showed TNF-α inhibiting effect | – |
| VRQHREARPALLTSRLRFIPKPD (listed as Homo sapiens) [SEQ ID NO: 33] | showed TNF-α inhibiting effect | showed TNF-α inhibiting effect |
| ALLTSRLRF (listed as Homo sapiens) [SEQ ID NO: 140] | showed TNF-α inhibiting effect | showed TNF-α inhibiting effect |
| REARPALLTSRLRFIPKPDGLRPI (listed as Homo sapiens) [SEQ ID NO: 64] | showed TNF-α inhibiting effect | showed TNF-α inhibiting effect |
| LLTSRL (listed as Homo sapiens) [SEQ ID NO: 108] | showed TNF-α inhibiting effect | showed TNF-α inhibiting effect |
| LLTSRLRF (listed as Homo sapiens) [SEQ ID NO: 148] | showed TNF-α inhibiting effect | showed TNF-α inhibiting effect |
| AEVRQHREARPALLTSRLRFIPKPDGLRP (listed as Homo sapiens) [SEQ ID NO: 57] | showed TNF-α inhibiting effect | – |
| SRLRF (listed as Homo sapiens) [SEQ ID NO: 167] | showed TNF-α inhibiting effect | showed TNF-α inhibiting effect |
| RQHREARPALLTSRLRFIPKPDGL (listed as Homo sapiens) [SEQ ID NO: 28] | showed TNF-α inhibiting effect | – |
| RQHREARPALLTSRLRFIPKPD (listed as Homo sapiens) [SEQ ID NO: 26] | showed TNF-α inhibiting effect | showed TNF-α inhibiting effect |
| LTSRL (listed as Homo sapiens) [SEQ ID NO: 157] | showed TNF-α inhibiting effect | showed TNF-α inhibiting effect |
